From patent publication US10294246B2, “Substituted boronic acids and boronate esters as immunoproteasome inhibitors” (MERCK PATENT GMBH, priority 2014, dated 2019)

Columns and labels:
[1] = molecular target: human immunoproteasome (LMP7) (Homo sapiens (Human), UniProt P28062); assay: Determination of LMP7 activity (fluorescence intensity assay, Suc-LLVY-AMC); assay type: biochemical; conditions: for Selectivity LMP7 vs Beta5: LMP7 versus Beta5; for IC50: purified human immunoproteasome 0.25 nM, Suc-LLVY-AMC 40 μM
Summary of the method: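 0.25 nM purified human immunoproteasome preincubated 20 min at 25 °C with serially diluted compounds in 50 mM Tris pH 7.4, 0.03% SDS, 1 mM EDTA, 1% DMSO. Reaction started with 40 μM Suc-LLVY-AMC, run 60 min at 37 °C. Fluorescence read at ex 350/em 450 nm.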

[2] = molecular target: human constitutive proteasome (Beta5) (Homo sapiens (Human), UniProt P28074); assay: Determination of Beta5 activity (fluorescence intensity assay, Suc-LLVY-AMC); assay type: biochemical; conditions: purified human constitutive proteasome 1.25 nM, Suc-LLVY-AMC 40 μM
Summary of the method: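 Purified constitutive proteasome (1.25 nM) was preincubated with compounds 20 min at 25 °C in 50 mM Tris pH 7.4, 0.03% SDS, 1 mM EDTA, 1% DMSO. Suc-LLVY-AMC (40 μM) was then added for 60 min at 37 °C. AMC fluorescence was read at ex 350/em 450 nm.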

In the case of `COc1ccc(CC(=O)N[C@H](Cc2coc3c(C)cccc23)B(O)O)cc1` [Compound No. 81, [(1S)-1-[[2-(4-methoxyphenyl)acetyl]amino]-2-(7-methylbenzofuran-3-yl)ethyl]boronic acid], the “Selectivity LMP7 vs Beta5” value [1] is reported as “+++++ (Selectivity ≥ 100)”, the IC50 [1] is reported as 50 to 500 nM and the IC50 [2] is reported as greater than 5 µM.

For `COc1ccc(CC(=O)N[C@@H](Cc2coc3c(C)cccc23)B(O)O)cc1` [Compound No. 82, [(1R)-1-[[2-(4-methoxyphenyl)acetyl]amino]-2-(7-methylbenzofuran-3-yl)ethyl]boronic acid], the “Selectivity LMP7 vs Beta5” value [1] was “+++++ (Selectivity ≥ 100)”, the IC50 [1] was less than 50 nM and the IC50 [2] was 0.5 to 5 µM.

With `Cc1cccc2c(C[C@H](NC(=O)[C@@H](CO)c3ccccc3)B(O)O)coc12` [Compound No. 83, [(1R)-1-[[(2R)-3-hydroxy-2-phenyl-propanoyl]amino]-2-(7-methylbenzofuran-3-yl)ethyl]boronic acid] the “Selectivity LMP7 vs Beta5” value [1] was “+++++ (Selectivity ≥ 100)”, the IC50 [1] was less than 50 nM and the IC50 [2] was 0.5 to 5 µM.

In the case of `Cc1cccc2c(C[C@@H](NC(=O)[C@@H](CO)c3ccccc3)B(O)O)coc12` [Compound No. 84, [(1S)-1-[[(2R)-3-hydroxy-2-phenyl-propanoyl]amino]-2-(7-methylbenzofuran-3-yl)ethyl]boronic acid], the “Selectivity LMP7 vs Beta5” value [1] is reported as “++ (10 ≤ Selectivity < 50)”, the IC50 [1] is reported as 500 to 5000 nM and the IC50 [2] is reported as greater than 5 µM.

For `O=C(Cc1ccccc1)N[C@@H](Cc1coc2c(Cl)cccc12)B(O)O` [Compound No. 85, [(1R)-2-(7-chlorobenzofuran-3-yl)-1-[(2-phenylacetyl)amino]ethyl]-boronic acid], the “Selectivity LMP7 vs Beta5” value [1] was “+++++ (Selectivity ≥ 100)”, the IC50 [1] was less than 50 nM and the IC50 [2] was 0.5 to 5 µM.

For `COc1ccc(CCC(=O)N[C@@H](CC2COc3c(C)cccc32)B(O)O)nc1` (stereo partly drawn) [Compound No. 86, [(1R)-1-[3-(5-methoxy-2-pyridyl)propanoylamino]-2-(7-methyl-2,3-dihydrobenzofuran-3-yl)ethyl]boronic acid], the “Selectivity LMP7 vs Beta5” value [1] was “+++++ (Selectivity ≥ 100)”, the IC50 [1] was less than 50 nM and the IC50 [2] was greater than 5 µM.

`COc1ccc(CCC(=O)N[C@H](CC2COc3c(C)cccc32)B(O)O)nc1` (stereo partly drawn) [Compound No. 87, [(1S)-1-[3-(5-methoxy-2-pyridyl)propanoylamino]-2-(7-methyl-2,3-dihydrobenzofuran-3-yl)ethyl]boronic acid] was tested, and the “Selectivity LMP7 vs Beta5” value [1] was “+ (Selectivity < 10)”, the IC50 [1] was 500 to 5000 nM and the IC50 [2] was greater than 5 µM.

In the case of `COc1ccc(CC(=O)N[C@@H](C[C@H]2COc3c(C)cccc32)B(O)O)cc1` [Compound No. 88, [(1R)-1-[[2-(4-methoxyphenyl)acetyl]amino]-2-[(3R)-7-methyl-2,3-dihydrobenzofuran-3-yl]ethyl]boronic acid], the “Selectivity LMP7 vs Beta5” value [1] is reported as “+++++ (Selectivity ≥ 100)”, the IC50 [1] is reported as 50 to 500 nM and the IC50 [2] is reported as greater than 5 µM.

In the case of `COc1ccc(CC(=O)N[C@@H](C[C@@H]2COc3c(C)cccc32)B(O)O)cc1` [Compound No. 89, [(1R)-1-[[2-(4-methoxyphenyl)acetyl]amino]-2-[(3S)-7-methyl-2,3-dihydrobenzofuran-3-yl]ethyl]boronic acid], the “Selectivity LMP7 vs Beta5” value [1] is reported as “+++++ (Selectivity ≥ 100)”, the IC50 [1] is reported as less than 50 nM and the IC50 [2] is reported as greater than 5 µM.

With `N#Cc1ccccc1CC(=O)N[C@@H](Cc1coc2ccccc12)B(O)O` [Compound No. 90, [(1R)-2-(benzofuran-3-yl)-1-[[2-(2-cyanophenyl)acetyl]amino]ethyl]-boronic acid] the “Selectivity LMP7 vs Beta5” value [1] was “+++++ (Selectivity ≥ 100)”, the IC50 [1] was less than 50 nM and the IC50 [2] was 0.5 to 5 µM.

For `CC(C)(O)c1ccc(CC(=O)N[C@@H](Cc2coc3ccccc23)B(O)O)cc1` [Compound No. 91, [(1R)-2-(benzofuran-3-yl)-1-[[2-[4-(1-hydroxy-1-methyl-ethyl)phenyl]acetyl]amino]ethyl]boronic acid], the “Selectivity LMP7 vs Beta5” value [1] was “+++++ (Selectivity ≥ 100)”, the IC50 [1] was less than 50 nM and the IC50 [2] was 0.05 to 0.5 µM.

For `COc1cccc2c(C[C@H](NC(=O)Cc3ccccc3)B(O)O)coc12` [Compound No. 92, [(1R)-2-(7-methoxybenzofuran-3-yl)-1-[(2-phenylacetyl)amino]ethyl]-boronic acid], the “Selectivity LMP7 vs Beta5” value [1] was “+++++ (Selectivity ≥ 100)”, the IC50 [1] was less than 50 nM and the IC50 [2] was 0.05 to 0.5 µM.

For `CO[C@@H](C(=O)N[C@@H](CC1COc2c(C)cccc21)B(O)O)c1ccccc1` (stereo partly drawn) [Compound No. 93, [(1R)-1-[[(2R)-2-methoxy-2-phenyl-acetyl]amino]-2-(7-methyl-2,3-dihydrobenzofuran-3-yl)ethyl]boronic acid], the “Selectivity LMP7 vs Beta5” value [1] was “+++++ (Selectivity ≥ 100)”, the IC50 [1] was less than 50 nM and the IC50 [2] was greater than 5 µM.

`Cc1ccc2c(C[C@H](NC(=O)Cc3ccccc3)B(O)O)coc2c1C` [Compound No. 94, [(1R)-2-(6,7-dimethylbenzofuran-3-yl)-1-[(2-phenylacetyl)amino]ethyl]boronic acid] was tested, and the “Selectivity LMP7 vs Beta5” value [1] was “+++++ (Selectivity ≥ 100)”, the IC50 [1] was less than 50 nM and the IC50 [2] was 0.5 to 5 µM.

For `COc1ccc(CCC(=O)N[C@@H](Cc2coc3c(C)c(C)ccc23)B(O)O)nc1` [Compound No. 95, [(1R)-2-(6,7-dimethylbenzofuran-3-yl)-1-[3-(5-methoxy-2-pyridyl)propanoylamino]ethyl]boronic acid], the “Selectivity LMP7 vs Beta5” value [1] was “+++++ (Selectivity ≥ 100)”, the IC50 [1] was less than 50 nM and the IC50 [2] was 0.5 to 5 µM.

For `C[C@H](C(=O)N[C@@H](Cc1coc2ccccc12)B(O)O)c1ccccc1C(=O)N(C)C` [Compound No. 96, [(1R)-2-(benzofuran-3-yl)-1-[[(2S)-2-[2-(dimethylcarbamoyl)phenyl]-propanoyl]amino]ethyl]boronic acid], the “Selectivity LMP7 vs Beta5” value [1] was “+++++ (Selectivity ≥ 100)”, the IC50 [1] was 50 to 500 nM and the IC50 [2] was greater than 5 µM.

With `C[C@@H](C(=O)N[C@@H](Cc1coc2ccccc12)B(O)O)c1ccccc1C(=O)N(C)C` [Compound No. 97, [(1R)-2-(benzofuran-3-yl)-1-[[(2R)-2-[2-(dimethylcarbamoyl)-phenyl]propanoyl]amino]ethyl]boronic acid] the “Selectivity LMP7 vs Beta5” value [1] was “+++++ (Selectivity ≥ 100)”, the IC50 [1] was 50 to 500 nM and the IC50 [2] was greater than 5 µM.

For `O=C(Cc1ccccc1-c1ccccc1)N[C@@H](Cc1coc2ccccc12)B(O)O` [Compound No. 98, [(1R)-2-(benzofuran-3-yl)-1-[[2-(2-phenylphenyl)acetyl]amino]-ethyl]boronic acid], the “Selectivity LMP7 vs Beta5” value [1] was “++++ (70 ≤ Selectivity < 100)”, the IC50 [1] was less than 50 nM and the IC50 [2] was 0.5 to 5 µM.

In the case of `C[C@@H](C(=O)N[C@@H](C[C@@H]1COc2ccccc21)B(O)O)c1ccccc1C(=O)N(C)C` [Compound No. 99, [(1R)-2-[(3S)-2,3-dihydrobenzofuran-3-yl]-1-[[(2R)-2-[2-(dimethylcarbamoyl)phenyl]propanoyl]amino]ethyl]boronic acid], the “Selectivity LMP7 vs Beta5” value [1] is reported as “+++++ (Selectivity ≥ 100)”, the IC50 [1] is reported as 50 to 500 nM and the IC50 [2] is reported as greater than 5 µM.

`Cc1cccc2c1OCC2C[C@H](NC(=O)Cc1ccccc1C(=O)N(C)C)B(O)O` (stereo partly drawn) [Compound No. 100, [(1R)-1-[[2-[2-(dimethylcarbamoyl)phenyl]acetyl]amino]-2-(7-methyl-2,3-dihydrobenzofuran-3-yl)ethyl]boronic acid] was tested, and the “Selectivity LMP7 vs Beta5” value [1] was “+++++ (Selectivity ≥ 100)”, the IC50 [1] was 50 to 500 nM and the IC50 [2] was greater than 5 µM.

`Cc1ccc2c(c1C)OCC2C[C@H](NC(=O)Cc1ccccc1)B(O)O` (stereo partly drawn) [Compound No. 101, [(1R)-2-(6,7-dimethyl-2,3-dihydrobenzofuran-3-yl)-1-[(2-phenylacetyl)-amino]ethyl]boronic acid] was tested, and the “Selectivity LMP7 vs Beta5” value [1] was “+++++ (Selectivity ≥ 100)”, the IC50 [1] was less than 50 nM and the IC50 [2] was greater than 5 µM.

With `COc1ccc(CCC(=O)N[C@@H](CC2COc3c2ccc(C)c3C)B(O)O)nc1` (stereo partly drawn) [Compound No. 102, [(1R)-2-(6,7-dimethyl-2,3-dihydrobenzofuran-3-yl)-1-[3-(5-methoxy-2-pyridyl)propanoylamino]ethyl]boronic acid] the “Selectivity LMP7 vs Beta5” value [1] was “+++++ (Selectivity ≥ 100)”, the IC50 [1] was 50 to 500 nM and the IC50 [2] was greater than 5 µM.

With `CC(=O)Nc1ccccc1CC(=O)N[C@@H](Cc1coc2ccccc12)B(O)O` [Compound No. 103, [(1R)-1-[[2-(2-acetamidophenyl)acetyl]amino]-2-(benzofuran-3-yl)ethyl]boronic acid] the “Selectivity LMP7 vs Beta5” value [1] was “++++ (70 ≤ Selectivity < 100)” and the IC50 [2] was 0.5 to 5 µM.

In the case of `Cc1cccc2c(C[C@H](NC(=O)Cc3ccccc3C#N)B(O)O)coc12` [Compound No. 104, [(1R)-1-[[2-(2-cyanophenyl)acetyl]amino]-2-(7-methylbenzofuran-3-yl)ethyl]boronic acid], the “Selectivity LMP7 vs Beta5” value [1] is reported as “+++++ (Selectivity ≥ 100)”, the IC50 [1] is reported as less than 50 nM and the IC50 [2] is reported as 0.5 to 5 µM.

In the case of `N#Cc1ccccc1CC(=O)N[C@@H](C[C@@H]1COc2ccccc21)B(O)O` [Compound No. 105, [(1R)-1-[[2-(2-cyanophenyl)acetyl]amino]-2-[(3S)-2,3-dihydrobenzofuran-3-yl]ethyl]boronic acid], the “Selectivity LMP7 vs Beta5” value [1] is reported as “+++++ (Selectivity ≥ 100)”, the IC50 [1] is reported as less than 50 nM and the IC50 [2] is reported as 0.5 to 5 µM.

`C[C@H](C(=O)N[C@@H](C[C@H]1COc2ccccc21)B(O)O)c1ccccc1C(=O)N(C)C` [Compound No. 106, [(1R)-2-[(3R)-2,3-dihydrobenzofuran-3-yl]-1-[[(2S)-2-[2-(dimethylcarbamoyl)phenyl]propanoyl]amino]ethyl]boronic acid] was tested, and the “Selectivity LMP7 vs Beta5” value [1] was “+++++ (Selectivity ≥ 100)”, the IC50 [1] was less than 50 nM and the IC50 [2] was greater than 5 µM.
